Measurements as given in the Kinase Knowledgebase extract (Sharma et al. 2016).

Molecular target: PIK3CA (human) (UniProt P42336)
Assay: Assessment of PIK3CA Kinase Activity

Chain of PIK3CA (human) (P42336 whole entry, looked up): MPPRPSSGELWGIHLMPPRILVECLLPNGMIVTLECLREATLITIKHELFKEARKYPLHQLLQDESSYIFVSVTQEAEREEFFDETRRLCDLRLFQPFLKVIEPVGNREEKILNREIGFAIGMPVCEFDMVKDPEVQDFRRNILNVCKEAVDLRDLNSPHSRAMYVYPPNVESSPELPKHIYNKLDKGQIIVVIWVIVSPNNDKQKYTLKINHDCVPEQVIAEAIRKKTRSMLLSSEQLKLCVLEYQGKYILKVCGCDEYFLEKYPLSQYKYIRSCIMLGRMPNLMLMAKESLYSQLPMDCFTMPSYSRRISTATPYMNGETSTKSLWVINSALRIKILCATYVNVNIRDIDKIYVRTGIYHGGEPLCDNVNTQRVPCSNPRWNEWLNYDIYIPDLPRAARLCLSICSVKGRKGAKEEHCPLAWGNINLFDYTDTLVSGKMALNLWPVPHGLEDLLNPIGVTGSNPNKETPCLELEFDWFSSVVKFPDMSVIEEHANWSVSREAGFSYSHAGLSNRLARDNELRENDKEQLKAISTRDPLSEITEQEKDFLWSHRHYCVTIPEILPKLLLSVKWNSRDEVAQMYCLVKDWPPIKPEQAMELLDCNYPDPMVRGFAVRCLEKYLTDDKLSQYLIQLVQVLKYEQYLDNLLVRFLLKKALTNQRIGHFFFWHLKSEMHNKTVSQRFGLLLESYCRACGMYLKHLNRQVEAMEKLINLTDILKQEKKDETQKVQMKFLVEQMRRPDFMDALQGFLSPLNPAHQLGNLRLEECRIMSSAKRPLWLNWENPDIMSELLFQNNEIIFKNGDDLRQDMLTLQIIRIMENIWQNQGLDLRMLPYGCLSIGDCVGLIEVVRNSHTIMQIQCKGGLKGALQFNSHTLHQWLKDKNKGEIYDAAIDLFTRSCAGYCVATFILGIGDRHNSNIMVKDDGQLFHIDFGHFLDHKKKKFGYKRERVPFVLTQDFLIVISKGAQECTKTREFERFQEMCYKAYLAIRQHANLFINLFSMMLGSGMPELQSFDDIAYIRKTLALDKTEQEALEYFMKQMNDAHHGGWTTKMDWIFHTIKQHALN

Row | Structure (SMILES) | IC50
1 | CN(C)C(=O)c1ccc(NC(=O)Nc2ccc(-c3nc(N4CCOCC4)c4ccc(-c5cncnc5)cc4n3)cc2F)cn1 | 50 to 200 nM
2 | CC1CN(c2nc(-c3ccc(NC(=O)Nc4ccc(C(=O)N(C)C)cc4)c(F)c3)nc3cc(-c4cncnc4)ccc23)CCO1 (configuration not stated) | 50 to 200 nM
3 | CN(C)C(=O)c1ccc(NC(=O)Nc2ccc(-c3nc(N4CCOCC4)c4cc(F)c(-c5cncnc5)cc4n3)c(F)c2)cc1 | 50 to 200 nM
4 | CN(C)C(=O)c1ccc(NC(=O)Nc2ccc(-c3nc(N4CCOCC4)c4ccc(-c5cnc(N(C)C)nc5)cc4n3)cc2F)cc1 | 50 to 200 nM
5 | CN(C)C(=O)c1ccc(NC(=O)Nc2ccc(-c3nc(N4CCOCC4)c4ccc(-c5ccncc5)cc4n3)cc2F)cc1 | 50 to 200 nM
6 | Cc1ccc(-c2cc3nc(-c4ccc(NC(=O)Nc5ccc(C(=O)N(C)C)cc5)cc4)nc(N4CCOCC4)c3cc2F)o1 | 50 to 200 nM
7 | CN(C)C(=O)c1ccc(NC(=O)Nc2ccc(-c3nc(N4CCOCC4)c4ccc(-c5ccccn5)cc4n3)cc2F)cc1 | 50 to 200 nM
8 | CN(C)C(=O)c1ccc(NC(=O)Nc2ccc(-c3nc(N4CCOCC4)c4ccccc4n3)cc2)cc1 | 50 to 200 nM
9 | CN(C)[C@H]1CCN(C(=O)c2ccc(NC(=O)Nc3ccc(-c4nc(N5CCOCC5)c5ccc(C(C)(C)O)cc5n4)cc3)cc2)C1 | 50 to 200 nM
10 | CN(C)C(=O)c1ccc(NC(=O)Nc2ccc(-c3nc(N4CCOCC4)c4ccc(-c5cnn(C)c5)cc4n3)c(F)c2)cc1 | 50 to 200 nM
11 | CN(C)CCNC(=O)c1ccc(-c2ccc3c(N4CCOCC4)nc(-c4ccc(NC(=O)Nc5ccc(C(=O)N(C)C)cc5)cc4)nc3c2)o1 | 50 to 200 nM
12 | CN(C)C(=O)c1ccc(NC(=O)Nc2ccc(-c3nc(N4CCOCC4)c4ccc(-c5ccco5)cc4n3)c(F)c2)cc1 | 50 to 200 nM
13 | COc1ccc2c(N3CCOCC3)nc(-c3ccc(NC(=O)Nc4ccc(C(=O)N(C)C)cc4)c(F)c3)nc2c1 | 50 to 200 nM
14 | CN(C)C(=O)c1ccc(NC(=O)Nc2ccc(-c3nc(N4CCOCC4)c4ccc(-c5cccc(F)c5)cc4n3)cc2)cc1 | 50 to 200 nM
15 | CN(C)C(=O)c1ccc(NC(=O)Nc2ccc(-c3nc(N4CCOCC4)c4ccc(-c5ccco5)cc4n3)c(F)c2F)cc1 | 50 to 200 nM
16 | CN(C)C(=O)c1ccc(NC(=O)Nc2ccc(-c3nc(N4CCOCC4)c4cccc(-c5cccnc5F)c4n3)cc2)cc1 | 50 to 200 nM

Row | Structure (SMILES) | IC50
17 | CN(C)C(=O)c1ccc(NC(=O)Nc2ccc(-c3nc(N4CCOCC4)c4cc(F)c(-c5cccnc5)cc4n3)cn2)cc1 | < 50 nM
18 | CN(C)C(=O)c1ccc(NC(=O)Nc2ccc(-c3nc(N4CCOCC4)c4ncc(-c5ccc(CO)o5)cc4n3)cc2F)cc1 | < 50 nM
19 | CN1CCN(C(=O)c2ccc(NC(=O)Nc3ccc(-c4nc(N5CCOCC5)c5cc(F)c(-c6cccnc6)cc5n4)cc3F)cc2)CC1 | < 50 nM
20 | CN(C)C(=O)c1ccc(NC(=O)Nc2ccc(-c3nc(N4CCOCC4)c4ccc(-c5ccc(N)nc5)cc4n3)cc2)c(F)c1 | 50 to 200 nM
21 | CN(C)CCNC(=O)c1ccc2c(N3CCOCC3)nc(-c3ccc(NC(=O)Nc4ccc(C(=O)N(C)C)cc4)cc3)nc2c1 | 50 to 200 nM
22 | CN(C)C(=O)c1ccc(NC(=O)Nc2ccc(-c3nc(N4CCOCC4)c4ccc(-c5ccco5)cc4n3)cn2)cc1 | < 50 nM
23 | CN(C)C(=O)c1ccc(NC(=O)Nc2ccc(-c3nc(N4CCOCC4)c4ccc(-c5cccc(S(C)(=O)=O)c5)cc4n3)cc2)cc1 | < 50 nM
24 | CN(C)C(=O)c1ccc(NC(=O)Nc2ccc(-c3nc(N4CCOCC4)c4ccc(-c5ccco5)cc4n3)cc2F)cc1 | 50 to 200 nM
25 | CN1CCN(C(=O)c2ccc(NC(=O)Nc3ccc(-c4nc(N5CCOCC5)c5ccc(-c6ccncc6)cc5n4)cc3)cc2)CC1 | < 50 nM
26 | Cc1noc(C)c1-c1cnc2c(N3CCOCC3)nc(-c3ccc(NC(=O)Nc4ccc(C(=O)N(C)C)cc4)c(F)c3)nc2c1 | < 50 nM
27 | CN(C)C(=O)c1ccc(NC(=O)Nc2ccc(-c3nc(N4CCOCC4)c4ncc(-c5cncnc5)cc4n3)cc2)c(F)c1 | < 50 nM
28 | CN(C)C(=O)c1ccc(NC(=O)Nc2ccc(-c3nc(N4CCOCC4)c4ccc(-c5ccccn5)cc4n3)cc2)cc1 | < 50 nM
29 | CNC(=O)c1ccc(NC(=O)Nc2ccc(-c3nc(N4CCOCC4)c4ccc(-c5cncnc5)cc4n3)cc2)cc1 | 50 to 200 nM
30 | CN(C)C(=O)c1ccc(NC(=O)Nc2ccc(-c3nc(N4CCOCC4)c4ccc(-c5ccc(C(=O)N(C)C)o5)cc4n3)cc2)cc1 | < 50 nM
31 | Cc1ccc(-c2ccc3c(N4CCOCC4)nc(-c4ccc(NC(=O)Nc5ccc(C(=O)N(C)C)cc5)cc4F)nc3c2)cn1 | < 50 nM

Next, values leading:

Row | IC50 | Structure (SMILES)
32 | < 50 nM | CN(C)[C@H]1CCN(C(=O)c2ccc(NC(=O)Nc3ccc(-c4nc(N5CCOCC5)c5cc(F)c(-c6cccnc6)cc5n4)cc3)cc2)C1
33 | < 50 nM | CN(C)C(=O)c1ccc(NC(=O)Nc2ccc(-c3nc(N4CCOCC4)c4ncc(-c5cccnc5)cc4n3)cc2)cc1F
34 | < 50 nM | Cc1ccncc1-c1cnc2c(N3CCOCC3)nc(-c3ccc(NC(=O)Nc4ccc(C(=O)N(C)C)cc4)cc3)nc2c1
35 | < 50 nM | CN(C)C(=O)c1ccc(NC(=O)Nc2ccc(-c3nc(N4CCOCC4)c4ccc(-c5ccc(C#N)o5)cc4n3)cc2)cc1
36 | < 50 nM | CNC(=O)c1ccc(NC(=O)Nc2ccc(-c3nc(N4CCOCC4)c4ccc(-c5cccc(S(C)(=O)=O)c5)cc4n3)cc2)cc1
37 | < 50 nM | CN(C)C(=O)c1ccc(NC(=O)Nc2ccc(-c3nc(N4CCOCC4)c4ccc(-c5cccc(N(C)C)c5)cc4n3)cc2)cc1
38 | < 50 nM | CN1CCN(C(=O)c2ccc(-c3ccc4c(N5CCOCC5)nc(-c5ccc(NC(=O)Nc6ccc(C(=O)N(C)C)cc6)cc5)nc4c3)o2)CC1
39 | < 50 nM | CN(C)C(=O)c1ccc(NC(=O)Nc2ccc(-c3nc(N4CCOCC4)c4ccc(-c5cnc(N)nc5)cc4n3)cc2)cc1
40 | < 50 nM | N[C@H]1CCN(C(=O)c2ccc(NC(=O)Nc3ccc(-c4nc(N5CCOCC5)c5ccc(-c6cncnc6)cc5n4)cc3)cc2)C1
41 | < 50 nM | CC(O)c1ccc(-c2cnc3c(N4CCOCC4)nc(-c4ccc(NC(=O)Nc5ccc(C(=O)N(C)C)cc5)cc4)nc3c2)o1 (configuration not stated)
42 | < 50 nM | COc1ncc(-c2cnc3c(N4CCOCC4)nc(-c4ccc(NC(=O)Nc5ccc(C(=O)N(C)C)cc5F)cc4)nc3c2)cn1
43 | < 50 nM | CNC(=O)c1ccc(NC(=O)Nc2ccc(-c3nc(N4CCOCC4)c4ccc(-c5ccco5)cc4n3)cc2)cc1
44 | < 50 nM | CN1CCN(C(=O)c2ccc(NC(=O)Nc3ccc(-c4nc(N5CCOCC5)c5ccc(-c6cccnc6F)cc5n4)cc3)cc2)CC1
45 | < 50 nM | Cc1ccc(-c2ccc3c(N4CCOCC4)nc(-c4ccc(NC(=O)Nc5ccc(C(=O)N(C)C)cc5)cc4)nc3c2)cn1
46 | < 50 nM | N[C@@H]1CCN(C(=O)c2ccc(NC(=O)Nc3ccc(-c4nc(N5CCOCC5)c5ccc(-c6cncnc6)cc5n4)cc3)cc2)C1
47 | < 50 nM | CN(C)C(=O)c1ccc(NC(=O)Nc2ccc(-c3nc(N4CCOCC4)c4ccc(C(C)(C)O)cc4n3)cc2)cc1
48 | < 50 nM | CN(C)C(=O)c1ccc(NC(=O)Nc2ccc(-c3nc(N4CCOCC4)c4ncc(-c5cccc(S(C)(=O)=O)c5)cc4n3)cc2)cc1
49 | < 50 nM | CN(C)[C@@H]1CCN(C(=O)c2ccc(NC(=O)Nc3ccc(-c4nc(N5CCOCC5)c5cc(F)c(-c6cccnc6)cc5n4)cc3)cc2)C1
50 | < 50 nM | CN(C)C(=O)c1ccc(NC(=O)Nc2ccc(-c3nc(N4CCOCC4)c4ncc(-c5cccnc5)cc4n3)cc2)c(F)c1
51 | < 50 nM | CN(C)C(=O)c1ccc(NC(=O)Nc2ccc(-c3nc(N4CCOCC4)c4ccc(-c5ccccn5)cc4n3)cc2)cc1F
52 | < 50 nM | CN(C)[C@H]1CCN(C(=O)c2ccc(NC(=O)Nc3ccc(-c4nc(N5CCOCC5)c5ncc(-c6cncnc6)cc5n4)cc3)cc2)C1

Row | IC50 | Structure (SMILES)
53 | < 50 nM | N[C@H]1CCN(C(=O)c2ccc(NC(=O)Nc3ccc(-c4nc(N5CCOCC5)c5ccc(-c6cncnc6)cc5n4)cc3F)cc2)C1
54 | < 50 nM | COc1ncc(-c2ccc3c(N4CCOCC4)nc(-c4ccc(NC(=O)Nc5ccc(C(=O)N(C)C)cc5)cc4)nc3c2)cn1
55 | < 50 nM | CN(C)C(=O)c1ccc(NC(=O)Nc2ccc(-c3nc(N4CCOCC4)c4ccc(-c5ccc(CO)o5)cc4n3)cc2)cc1
56 | < 50 nM | CN(C)C(=O)c1ccc(NC(=O)Nc2ccc(-c3nc(N4CCOCC4)c4cc(F)c(-c5cncnc5)cc4n3)cn2)cc1
57 | < 50 nM | CN(C)C(=O)c1ccc(NC(=O)Nc2ccc(-c3nc(N4CCOCC4)c4ccc(CO)cc4n3)cc2)cc1
58 | < 50 nM | Cc1ccncc1-c1ccc2c(N3CCOCC3)nc(-c3ccc(NC(=O)Nc4ccc(C(=O)N(C)C)cc4)c(F)c3)nc2c1
59 | < 50 nM | Cc1ncccc1-c1ccc2c(N3CCOCC3)nc(-c3ccc(NC(=O)Nc4ccc(C(=O)N(C)C)cc4)cc3)nc2c1
60 | < 50 nM | CN(C)CCN(C)C(=O)c1ccc(NC(=O)Nc2ccc(-c3nc(N4CCOCC4)c4ccc(-c5cncnc5)cc4n3)cc2)cc1
61 | < 50 nM | CN(C)[C@H]1CCN(C(=O)c2ccc(NC(=O)Nc3ccc(-c4nc(N5CCOCC5)c5ncc(-c6cnn(C)c6)cc5n4)cc3)cc2)C1
62 | < 50 nM | CN(C)CCN(C)C(=O)c1ccc(NC(=O)Nc2ccc(-c3nc(N4CCOCC4)c4ccc(-c5ccco5)cc4n3)cc2)cc1
63 | < 50 nM | CN(C)C(=O)c1ccc(NC(=O)Nc2ccc(-c3nc(N4CCOCC4)c4ncc(-c5cccnc5F)cc4n3)cc2F)cc1
64 | < 50 nM | CC(O)c1ccc(-c2cnc3c(N4CCOCC4)nc(-c4ccc(NC(=O)Nc5ccc(C(=O)N(C)C)cc5)c(F)c4)nc3c2)o1 (configuration not stated)
65 | < 50 nM | CN(C)C(=O)c1ccc(NC(=O)Nc2ccc(-c3nc(N4CCOCC4)c4ccc(-c5cnn(C)c5)cc4n3)cc2F)cc1
66 | < 50 nM | N[C@@H]1CCN(C(=O)c2ccc(NC(=O)Nc3ccc(-c4nc(N5CCOCC5)c5ccc(-c6cncnc6)cc5n4)cc3F)cc2)C1
67 | < 50 nM | CN(C)C(=O)c1ccc(NC(=O)Nc2ccc(-c3nc(N4CCOCC4)c4ncc(-c5cnc(N(C)C)nc5)cc4n3)cc2)cc1
68 | < 50 nM | CN(C)C(=O)c1ccc(NC(=O)Nc2ccc(-c3nc(N4CCOCC4)c4ccc(-c5cccnc5)cc4n3)cc2)cc1F
69 | < 50 nM | CN(C)[C@@H]1CCN(C(=O)c2ccc(NC(=O)Nc3ccc(-c4nc(N5CCOCC5)c5ncc(-c6cnn(C)c6)cc5n4)cc3)cc2)C1
70 | < 50 nM | O=C(Nc1ccc(C(=O)N2CCC(O)C2)cc1)Nc1ccc(-c2nc(N3CCOCC3)c3ccc(-c4ccco4)cc3n2)cc1 (configuration not stated)
71 | < 50 nM | CN(C)C(=O)c1ccc(NC(=O)Nc2ccc(-c3nc(N4CCOCC4)c4ncc(-c5cccnc5F)cc4n3)cc2)cc1
72 | < 50 nM | CN(C)C(=O)c1ccc(NC(=O)Nc2ccc(-c3nc(N4CCOCC4)c4cc(F)c(-c5cccnc5F)cc4n3)cc2)cc1
